Data published in the NIST ThermoML archive (doi:10.1016/j.tca.2012.08.011).

Assay: xn = mol fraction of the nth substance listed
Details: 101 kPa, Liquid; for speed of sound: Linear variable-path acoustic interferometer; for mass density: Vibrating tube method

NC1CCCCC1 [cyclohexylamine] + c1ccccc1
Details | mass density [kg/m3] | speed of sound [m/s]
293.15 K, x1 = 0.0621 | 877.45 | 1328
293.15 K, x1 = 0.0938 | 876.73 | 1331
293.15 K, x1 = 0.1434 | 875.68 | 1335.6
293.15 K, x1 = 0.1546 | 875.47 | 1336.6
293.15 K, x1 = 0.2031 | 874.52 | 1341.3
293.15 K, x1 = 0.2475 | 873.73 | 1345.8
293.15 K, x1 = 0.2972 | 872.9 | 1350.9
293.15 K, x1 = 0.3472 | 872.15 | 1356.1
293.15 K, x1 = 0.3945 | 871.5 | 1361.2
293.15 K, x1 = 0.4786 | 870.45 | 1370.2
293.15 K, x1 = 0.4948 | 870.28 | 1372.1
293.15 K, x1 = 0.5013 | 870.2 | 1372.6
293.15 K, x1 = 0.5389 | 869.83 | 1376.9
293.15 K, x1 = 0.5396 | 869.83 | 1377
293.15 K, x1 = 0.5419 | 869.8 | 1377.1
293.15 K, x1 = 0.5927 | 869.3 | 1382.8
293.15 K, x1 = 0.6428 | 868.89 | 1388.4
293.15 K, x1 = 0.6927 | 868.55 | 1394.2
293.15 K, x1 = 0.7465 | 868.2 | 1400.3
293.15 K, x1 = 0.7962 | 867.93 | 1405.9
293.15 K, x1 = 0.8474 | 867.74 | 1411.9
293.15 K, x1 = 0.897 | 867.61 | 1418
293.15 K, x1 = 0.9485 | 867.49 | 1424.2
293.15 K, x1 = 1 | 867.39 | 1430.5
298.15 K, x1 = 0.0621 | 872.22 | 1304.7
298.15 K, x1 = 0.0938 | 871.52 | 1307.7
298.15 K, x1 = 0.1434 | 870.56 | 1312.3
298.15 K, x1 = 0.1546 | 870.34 | 1313.4
298.15 K, x1 = 0.2031 | 869.46 | 1318.1
298.15 K, x1 = 0.2475 | 868.71 | 1322.7
298.15 K, x1 = 0.2972 | 867.95 | 1327.9
298.15 K, x1 = 0.3472 | 867.25 | 1333.3
298.15 K, x1 = 0.3945 | 866.64 | 1338.4
298.15 K, x1 = 0.4786 | 865.69 | 1347.5
298.15 K, x1 = 0.4948 | 865.5 | 1349.2
298.15 K, x1 = 0.5013 | 865.45 | 1349.9
298.15 K, x1 = 0.5389 | 865.08 | 1354.3
298.15 K, x1 = 0.5396 | 865.08 | 1354.4
298.15 K, x1 = 0.5419 | 865.06 | 1354.6
298.15 K, x1 = 0.5927 | 864.62 | 1360.2
298.15 K, x1 = 0.6428 | 864.23 | 1365.8
298.15 K, x1 = 0.6927 | 863.88 | 1371.8
298.15 K, x1 = 0.7465 | 863.59 | 1378
298.15 K, x1 = 0.7962 | 863.33 | 1383.7
298.15 K, x1 = 0.8474 | 863.17 | 1389.9
298.15 K, x1 = 0.897 | 863.04 | 1396
298.15 K, x1 = 0.9485 | 862.94 | 1402.4
298.15 K, x1 = 1 | 862.85 | 1408.8
303.15 K, x1 = 0.0621 | 866.94 | 1281.5
303.15 K, x1 = 0.0938 | 866.31 | 1284.3
303.15 K, x1 = 0.1434 | 865.4 | 1289.2
303.15 K, x1 = 0.1546 | 865.2 | 1290.3
303.15 K, x1 = 0.2031 | 864.38 | 1295.1
303.15 K, x1 = 0.2475 | 863.69 | 1299.7
303.15 K, x1 = 0.2972 | 862.98 | 1305.2
303.15 K, x1 = 0.3472 | 862.36 | 1310.6
303.15 K, x1 = 0.3945 | 861.76 | 1315.6
303.15 K, x1 = 0.4786 | 860.88 | 1325
303.15 K, x1 = 0.4948 | 860.72 | 1326.9
303.15 K, x1 = 0.5013 | 860.67 | 1327.4
303.15 K, x1 = 0.5389 | 860.32 | 1331.8
303.15 K, x1 = 0.5396 | 860.32 | 1331.9
303.15 K, x1 = 0.5419 | 860.3 | 1332.1
303.15 K, x1 = 0.5927 | 859.9 | 1337.9
303.15 K, x1 = 0.6428 | 859.54 | 1343.5
303.15 K, x1 = 0.6927 | 859.24 | 1349.5
303.15 K, x1 = 0.7465 | 858.96 | 1355.6
303.15 K, x1 = 0.7962 | 858.72 | 1361.5
303.15 K, x1 = 0.8474 | 858.58 | 1367.9
303.15 K, x1 = 0.897 | 858.47 | 1374.1
303.15 K, x1 = 0.9485 | 858.38 | 1380.5
303.15 K, x1 = 1 | 858.31 | 1387.3
308.15 K, x1 = 0.0621 | 861.67 | 1258.4
308.15 K, x1 = 0.0938 | 861.08 | 1261.5
308.15 K, x1 = 0.1434 | 860.23 | 1266.2
308.15 K, x1 = 0.1546 | 860.04 | 1267.5
308.15 K, x1 = 0.2031 | 859.28 | 1272.5
308.15 K, x1 = 0.2475 | 858.65 | 1277.2
308.15 K, x1 = 0.2972 | 857.99 | 1282.6
308.15 K, x1 = 0.3472 | 857.38 | 1288.1
308.15 K, x1 = 0.3945 | 856.87 | 1293.2
308.15 K, x1 = 0.4786 | 856.07 | 1302.7
308.15 K, x1 = 0.4948 | 855.9 | 1304.6
308.15 K, x1 = 0.5013 | 855.87 | 1305.1
308.15 K, x1 = 0.5389 | 855.55 | 1309.4
308.15 K, x1 = 0.5396 | 855.55 | 1309.5
308.15 K, x1 = 0.5419 | 855.53 | 1309.8
308.15 K, x1 = 0.5927 | 855.17 | 1315.5
308.15 K, x1 = 0.6428 | 854.84 | 1321.3
308.15 K, x1 = 0.6927 | 854.58 | 1327.3
308.15 K, x1 = 0.7465 | 854.32 | 1333.5
308.15 K, x1 = 0.7962 | 854.16 | 1339.7
308.15 K, x1 = 0.8474 | 853.99 | 1345.9
308.15 K, x1 = 0.897 | 853.9 | 1352.2
308.15 K, x1 = 0.9485 | 853.83 | 1359
308.15 K, x1 = 1 | 853.76 | 1366
313.15 K, x1 = 0.0621 | 856.39 | 1235.4
313.15 K, x1 = 0.0938 | 855.84 | 1238.6
313.15 K, x1 = 0.1434 | 855.11 | 1243.5
313.15 K, x1 = 0.1546 | 854.94 | 1244.6
313.15 K, x1 = 0.2031 | 854.22 | 1249.7
313.15 K, x1 = 0.2475 | 853.65 | 1254.5
313.15 K, x1 = 0.2972 | 853.04 | 1260
313.15 K, x1 = 0.3472 | 852.51 | 1265.6
313.15 K, x1 = 0.3945 | 852.03 | 1270.9
313.15 K, x1 = 0.4786 | 851.24 | 1280.4
313.15 K, x1 = 0.4948 | 851.15 | 1282.3
313.15 K, x1 = 0.5013 | 851.07 | 1283
313.15 K, x1 = 0.5389 | 850.78 | 1287.3
313.15 K, x1 = 0.5396 | 850.78 | 1287.4
313.15 K, x1 = 0.5419 | 850.75 | 1287.7
313.15 K, x1 = 0.5927 | 850.43 | 1293.5
313.15 K, x1 = 0.6428 | 850.14 | 1299.4
313.15 K, x1 = 0.6927 | 849.92 | 1305.2
313.15 K, x1 = 0.7465 | 849.68 | 1311.7
313.15 K, x1 = 0.7962 | 849.53 | 1317.8
313.15 K, x1 = 0.8474 | 849.39 | 1324.1
313.15 K, x1 = 0.897 | 849.32 | 1330.5
313.15 K, x1 = 0.9485 | 849.27 | 1337.5
313.15 K, x1 = 1 | 849.23 | 1344.5
318.15 K, x1 = 0.0621 | 851.07 | 1212.6
318.15 K, x1 = 0.0938 | 850.53 | 1215.7
318.15 K, x1 = 0.1434 | 849.85 | 1220.9
318.15 K, x1 = 0.1546 | 849.69 | 1221.9
318.15 K, x1 = 0.2031 | 849.06 | 1227.1
318.15 K, x1 = 0.2475 | 848.53 | 1232
318.15 K, x1 = 0.2972 | 847.99 | 1237.5
318.15 K, x1 = 0.3472 | 847.44 | 1243.2
318.15 K, x1 = 0.3945 | 847.06 | 1248.6
318.15 K, x1 = 0.4786 | 846.39 | 1258.2
318.15 K, x1 = 0.4948 | 846.28 | 1260
318.15 K, x1 = 0.5013 | 846.24 | 1260.8
318.15 K, x1 = 0.5389 | 845.99 | 1265.3
318.15 K, x1 = 0.5396 | 845.99 | 1265.4
318.15 K, x1 = 0.5419 | 845.99 | 1265.7
318.15 K, x1 = 0.5927 | 845.7 | 1271.5
318.15 K, x1 = 0.6428 | 845.45 | 1277.4
318.15 K, x1 = 0.6927 | 845.29 | 1283.3
318.15 K, x1 = 0.7465 | 845.06 | 1289.9
318.15 K, x1 = 0.7962 | 844.93 | 1295.8
318.15 K, x1 = 0.8474 | 844.84 | 1302.4
318.15 K, x1 = 0.897 | 844.74 | 1308.8
318.15 K, x1 = 0.9485 | 844.71 | 1315.9
318.15 K, x1 = 1 | 844.68 | 1323.1
323.15 K, x1 = 0.0621 | 845.7 | 1190.1
323.15 K, x1 = 0.0938 | 845.26 | 1193.2
323.15 K, x1 = 0.1434 | 844.64 | 1198.3
323.15 K, x1 = 0.1546 | 844.5 | 1199.4
323.15 K, x1 = 0.2031 | 843.92 | 1204.6
323.15 K, x1 = 0.2475 | 843.45 | 1209.5
323.15 K, x1 = 0.2972 | 842.96 | 1215.1
323.15 K, x1 = 0.3472 | 842.52 | 1220.9
323.15 K, x1 = 0.3945 | 842.14 | 1226.2
323.15 K, x1 = 0.4786 | 841.55 | 1236.1
323.15 K, x1 = 0.4948 | 841.45 | 1237.9
323.15 K, x1 = 0.5013 | 841.42 | 1238.7
323.15 K, x1 = 0.5389 | 841.19 | 1243.1
323.15 K, x1 = 0.5396 | 841.19 | 1243.2
323.15 K, x1 = 0.5419 | 841.19 | 1243.5
323.15 K, x1 = 0.5927 | 840.94 | 1249.5
323.15 K, x1 = 0.6428 | 840.73 | 1255.5
323.15 K, x1 = 0.6927 | 840.66 | 1261.5
323.15 K, x1 = 0.7465 | 840.41 | 1268.1
323.15 K, x1 = 0.7962 | 840.3 | 1274.1
323.15 K, x1 = 0.8474 | 840.24 | 1280.6
323.15 K, x1 = 0.897 | 840.16 | 1287.1
323.15 K, x1 = 0.9485 | 840.16 | 1294.4
323.15 K, x1 = 1 | 840.14 | 1301.8
